Measured values from EP3046573B1, “AMYLIN ANALOGUES” (Zealand Pharma A/S, priority 2013, dated 2015).
Numbered stars: 1 amine (or outer) side, 2 acyl side, 3 side chain; on linkers, the order of the positions; unused ones are H or OH. Bridge positions count the residues as written; N and C are the ends. Square brackets hold non-standard residues; d marks the D form. Peptide text beside a SMILES is read from it. * marks the point of attachment. C20 diacid = O=C(O)CCCCCCCCCCCCCCCCCCC(=O)*; γGlu = O=C(O)[C@H](CCC(=O)[*:2])N[*:1]; Hyp = O=C(O)[C@@H]1C[C@@H](O)CN1; NMeI = CC[C@H](C)[C@H](NC)C(=O)O; Sar = CNCC(=O)O

Experiments:
[1] = molecular target: T1, human amylin receptor 3 (hAMYR3) consisting of hCTR2 co-expressed with human Receptor Activity Modifying Protein 3 (hRAMP3) (Homo sapiens, UniProt O60896+P30988); experiment: hAMYR3 assay: induction of cAMP (AlphaScreen cAMP Assay kit) in COS7 cells expressing hAMYR3; format: cell-based; conditions: cAMP induction in COS7 cells expressing hAMYR3; average of a minimum of 3 determinations; read-out: hAMY R3 EC50
T1 construct: expressed in transfected cells
T1 sequence (P30988 25-474): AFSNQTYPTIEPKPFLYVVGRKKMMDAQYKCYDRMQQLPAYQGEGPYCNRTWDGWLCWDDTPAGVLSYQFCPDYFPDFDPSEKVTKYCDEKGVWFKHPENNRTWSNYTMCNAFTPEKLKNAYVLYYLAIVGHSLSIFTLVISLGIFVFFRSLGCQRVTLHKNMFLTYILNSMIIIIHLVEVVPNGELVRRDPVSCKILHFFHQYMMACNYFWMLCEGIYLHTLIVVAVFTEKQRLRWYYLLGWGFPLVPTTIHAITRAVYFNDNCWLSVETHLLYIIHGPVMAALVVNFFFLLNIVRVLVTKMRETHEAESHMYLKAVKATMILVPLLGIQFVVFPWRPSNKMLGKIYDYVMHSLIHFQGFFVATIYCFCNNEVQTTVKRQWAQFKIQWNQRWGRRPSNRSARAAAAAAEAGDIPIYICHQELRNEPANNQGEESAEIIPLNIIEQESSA
T1 sequence (O60896 24-148 partner): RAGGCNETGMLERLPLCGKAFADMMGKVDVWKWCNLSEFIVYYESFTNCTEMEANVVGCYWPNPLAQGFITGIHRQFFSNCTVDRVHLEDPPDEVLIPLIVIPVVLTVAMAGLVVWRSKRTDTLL
Summary of the method: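 Stable COS7 clone co-expressing hCTR2 and hRAMP3, stimulated 15 min at 37° C with increasing peptide in Tyrode buffer pH 7.4 with 100 µM IBMX and 0.1% casein. cAMP measured by AlphaScreen after lysis; EC50 and % efficacy versus pramlintide from 4PL fit.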

[2] = molecular target: T2, human calcitonin receptor (hCTR2) (Homo sapiens, UniProt P30988); experiment: hCTR2 assay: induction of cAMP (AlphaScreen cAMP Assay kit) in COS7 cells expressing hCTR2; format: cell-based; conditions: cAMP induction in COS7 cells expressing hCTR2; average of a minimum of 3 determinations; read-out: hCTR2 EC50
T2 construct: expressed in transfected cells
T2 sequence (P30988 25-474): T1 sequence (P30988 25-474)
Summary of the method: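 Stable hCTR2 clone in RAMP-naive COS7 cells; peptides titrated in Tyrode buffer (pH 7.4) with 100 µM IBMX, 0.1% casein, 15 min at 37° C. cAMP read by AlphaScreen after lysis; EC50 and efficacy relative to pramlintide from 4PL fit.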

[3] = Solubility assessment (turbidity absorbance at 325 nm); format: physicochemical; conditions: stock 2 mg/ml diluted 1:1, ambient temperature (typically 25°C), n=1; for Solubility, Acetate buffer pH 4: 100 mM acetate buffer pH 4.0; for Solubility, Acetate buffer pH 5: 100 mM acetate buffer pH 5.0; for Solubility, Histidine buffer pH 6: 100 mM histidine buffer pH 6.0; for Solubility, Histidine buffer pH 7: 100 mM histidine buffer pH 7.0; for Solubility, Phosphate buffer pH 6: 100 mM phosphate buffer pH 6.0; for Solubility, Phosphate buffer pH 7: 100 mM phosphate buffer pH 7.0; for Solubility, Phosphate buffer pH 7.5: 100 mM phosphate buffer pH7.5
Summary of the method: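 Peptide stock (2 mg/ml, water pH 2.5) diluted 1:1 into 100 mM acetate (pH 4.0, 5.0), histidine (pH 6.0, 7.0) or phosphate (pH 6.0–7.5) buffer; absorbance at 325 nm read at about 25°C, n=1. A325 ≤ 0.02 taken as solubility ≥ 1 mg/ml.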

SMILES	EC50 [1]	EC50 [2]	Solubility, Acetate buffer pH 4 [3]	Solubility, Acetate buffer pH 5 [3]	Solubility, Histidine buffer pH 6 [3]	Solubility, Histidine buffer pH 7 [3]	Solubility, Phosphate buffer pH 6 [3]	Solubility, Phosphate buffer pH 7 [3]	Solubility, Phosphate buffer pH 7.5 [3]
CC[C@H](C)[C@@H](C(=O)N[C@@H](CC(C)C)C(=O)N[C@@H](CO)C(=O)N[C@@H](CO)C(=O)N[C@H](C(=O)N[C@@H](CC(=O)O)C(=O)N[C@H](C(=O)NCC(=O)N[C@@H](CO)C(=O)N[C@@H](CC(=O)O)C(=O)N[C@H](C(=O)N1CCC[C@H]1C(N)=O)[C@@H](C)O)C(C)C)[C@@H](C)O)N(C)C(=O)[C@H](C)NC(=O)CN(C)C(=O)[C@H](Cc1ccccc1)NC(=O)[C@H](CO)NC(=O)[C@H](CO)NC(=O)[C@H](CO)NC(=O)[C@H](CO)NC(=O)[C@H](CCCNC(=N)N)NC(=O)[C@H](Cc1c[nH]cn1)NC(=O)[C@H](CC(C)C)NC(=O)[C@H](Cc1ccccc1)NC(=O)[C@H](CCC(=O)O)NC(=O)[C@H](C)NC(=O)[C@H](CC(C)C)NC(=O)[C@H](CCCNC(=N)N)NC(=O)[C@H](CCC(=O)O)NC(=O)[C@@H](NC(=O)[C@H](C)NC(=O)[C@@H]1CSSC[C@H](NC(=O)[C@H](CCCNC(=N)N)NC(=O)CC[C@H](NC(=O)CCCCCCCCCCCCCCCCCCC(=O)O)C(=O)O)C(=O)N[C@@H](CC(N)=O)C(=O)N[C@@H]([C@@H](C)O)C(=O)N[C@@H](C)C(=O)N[C@@H]([C@@H](C)O)C(=O)N1)[C@@H](C)O [Compound 160, [19CD]-isoGlu-RC()NTATC()ATERLAEFLHRSSSSF-Gly(Me)-A-Ile(Me)-LSSTDVGSDTP-NH2] ({C20 diacid-γGlu}-RCNTATCATERLAEFLHRSSSSF[Sar]A[NMeI]LSSTDVGSDTP-NH2; disulfide 2-7)	0.14 nM	0.13 nM	SS (SS indicates solubility ≥ 1mg/ml)	SS (SS indicates solubility ≥ 1mg/ml)	SS (SS indicates solubility ≥ 1mg/ml)	SS (SS indicates solubility ≥ 1mg/ml)	SS (SS indicates solubility ≥ 1mg/ml)	SS (SS indicates solubility ≥ 1mg/ml)	SS (SS indicates solubility ≥ 1mg/ml)
CC[C@H](C)[C@@H](C(=O)N[C@@H](CC(C)C)C(=O)N[C@@H](CO)C(=O)N[C@@H](CO)C(=O)N[C@H](C(=O)N[C@@H](CCC(=O)O)C(=O)N[C@H](C(=O)NCC(=O)N[C@@H](CO)C(=O)N[C@@H](CCC(=O)O)C(=O)N[C@H](C(=O)N1CCC[C@H]1C(N)=O)[C@@H](C)O)C(C)C)[C@@H](C)O)N(C)C(=O)[C@H](C)NC(=O)CN(C)C(=O)[C@H](Cc1ccccc1)NC(=O)[C@H](CO)NC(=O)[C@H](CO)NC(=O)[C@H](CO)NC(=O)[C@H](CO)NC(=O)[C@H](CCCNC(=N)N)NC(=O)[C@H](Cc1c[nH]cn1)NC(=O)[C@H](CC(C)C)NC(=O)[C@H](Cc1ccccc1)NC(=O)[C@H](CCC(=O)O)NC(=O)[C@H](C)NC(=O)[C@H](CC(C)C)NC(=O)[C@H](CCCNC(=N)N)NC(=O)[C@H](CCC(=O)O)NC(=O)[C@@H](NC(=O)[C@H](C)NC(=O)[C@@H]1CSSC[C@H](NC(=O)[C@H](CCCCN)NC(=O)[C@H](CCCCN)NC(=O)CC[C@H](NC(=O)CCCCCCCCCCCCCCCCCCC(=O)O)C(=O)O)C(=O)N[C@@H](CCC(=O)O)C(=O)N[C@@H]([C@@H](C)O)C(=O)N[C@@H](C)C(=O)N[C@@H]([C@@H](C)O)C(=O)N1)[C@@H](C)O [Compound 163, [19CD]-isoGlu-KKC()ETATC()ATERLAEFLHRSSSSF-Gly(Me)-A-Ile(Me)-LSSTEVGSETP-NH2] ({C20 diacid-γGlu}-KKCETATCATERLAEFLHRSSSSF[Sar]A[NMeI]LSSTEVGSETP-NH2; disulfide 3-8)	0.74 nM	0.42 nM	SS (SS indicates solubility ≥ 1mg/ml)	SS (SS indicates solubility ≥ 1mg/ml)	SS (SS indicates solubility ≥ 1mg/ml)	SS (SS indicates solubility ≥ 1mg/ml)	SS (SS indicates solubility ≥ 1mg/ml)	II (II indicates solubility ≤ 1 mg/ml)	SS (SS indicates solubility ≥ 1mg/ml)
CC[C@H](C)[C@@H](C(=O)N[C@@H](CC(C)C)C(=O)N[C@@H](CO)C(=O)N[C@@H](CO)C(=O)N[C@H](C(=O)N[C@@H](CCC(=O)O)C(=O)N[C@H](C(=O)NCC(=O)N[C@@H](CO)C(=O)N[C@@H](CCC(=O)O)C(=O)N[C@H](C(=O)N1C[C@H](O)C[C@H]1C(N)=O)[C@@H](C)O)C(C)C)[C@@H](C)O)N(C)C(=O)CN(C)C(=O)[C@H](Cc1ccccc1)NC(=O)[C@H](CO)NC(=O)[C@H](CO)NC(=O)[C@H](CCCNC(=N)N)NC(=O)[C@H](Cc1c[nH]cn1)NC(=O)[C@H](CC(C)C)NC(=O)[C@H](Cc1ccccc1)NC(=O)[C@H](CCC(=O)O)NC(=O)[C@H](C)NC(=O)[C@H](CC(C)C)NC(=O)[C@H](CCCNC(=N)N)NC(=O)[C@H](CCC(=O)O)NC(=O)[C@@H](NC(=O)[C@H](C)NC(=O)[C@@H]1CSSC[C@H](NC(=O)[C@H](Cc2c[nH]c3ccccc23)NC(=O)CC[C@H](NC(=O)CCCCCCCCCCCCCCCCCCC(=O)O)C(=O)O)C(=O)NCC(=O)N[C@@H]([C@@H](C)O)C(=O)N[C@@H](C)C(=O)N[C@@H]([C@@H](C)O)C(=O)N1)[C@@H](C)O [Compound 165, [19CD]-isoGlu-WC()GTATC()ATERLAEFLHRSSF-Gly(Me)-Ile(Me)-LSSTEVGSET-Hyp-NH2] ({C20 diacid-γGlu}-WCGTATCATERLAEFLHRSSF[Sar][NMeI]LSSTEVGSET[Hyp]-NH2; disulfide 2-7)	0.27 nM	0.11 nM	SS (SS indicates solubility ≥ 1mg/ml)	SS (SS indicates solubility ≥ 1mg/ml)	SS (SS indicates solubility ≥ 1mg/ml)	SS (SS indicates solubility ≥ 1mg/ml)	SS (SS indicates solubility ≥ 1mg/ml)	II (II indicates solubility ≤ 1 mg/ml)	SS (SS indicates solubility ≥ 1mg/ml)
